Several values for one entry are separate records, joined by “and”; a condition that tells them apart may be missing. Identical values can stand only once.
Details: Liquid

[Cl][Tb]([Cl])[Cl] [terbium trichloride]
Details | vapor or sublimation pressure
921 K | 6.76e-05 kPa
931 K | 0.0001 kPa
937 K | 0.000135 kPa
942 K | 0.000209 kPa
943 K | 0.00017 kPa
946 K | 0.000166 kPa
950 K | 0.000204 kPa
953 K | 0.000219 kPa
957 K | 0.000331 kPa and 0.000245 kPa
961 K | 0.000288 kPa
965 K | 0.000302 kPa
967 K | 0.000331 kPa
971 K | 0.000501 kPa and 0.000372 kPa
975 K | 0.000407 kPa
976 K | 0.000331 kPa
979 K | 0.000447 kPa and 0.000331 kPa
980 K | 0.000501 kPa
984 K | 0.000537 kPa
988 K | 0.000832 kPa
990 K | 0.000661 kPa
992 K | 0.000501 kPa
994 K | 0.000708 kPa and 0.000741 kPa
995 K | 0.000501 kPa
998 K | 0.000794 kPa
999 K | 0.00107 kPa and 0.000912 kPa
1006 K | 0.00105 kPa and 0.000741 kPa
1009 K | 0.000741 kPa
1010 K | 0.00123 kPa and 0.00115 kPa
1011 K | 0.00148 kPa
1017 K | 0.00132 kPa [middle of 4 runs]
1020 K | 0.00158 kPa
1021 K | 0.00191 kPa
1024 K | 0.00166 kPa
1026 K | 0.00178 kPa
1027 K | 0.00123 kPa
1028 K | 0.00123 kPa
1029 K | 0.00209 kPa
1033 K | 0.00257 kPa
1034 K | 0.00214 kPa
1035 K | 0.00148 kPa
1037 K | 0.00251 kPa and 0.00158 kPa
1038 K | 0.00257 kPa
1043 K | 0.00263 kPa and 0.00191 kPa
1045 K | 0.00355 kPa
1047 K | 0.00331 kPa
1048 K | 0.00209 kPa
1053 K | 0.00447 kPa
1054 K | 0.00355 kPa and 0.00245 kPa
1056 K | 0.00372 kPa
1057 K | 0.00417 kPa
1058 K | 0.00263 kPa
1059 K | 0.00389 kPa
1064 K | 0.00575 kPa
1065 K | 0.00513 kPa
1067 K | 0.00372 kPa
1071 K | 0.00676 kPa and 0.00372 kPa
1072 K | 0.00525 kPa
1073 K | 0.00525 kPa
1075 K | 0.00617 kPa
1081 K | 0.00851 kPa
1082 K | 0.00537 kPa
1091 K | 0.00851 kPa
1092 K | 0.0112 kPa
1093 K | 0.00708 kPa
1102 K | 0.0141 kPa
1105 K | 0.00912 kPa
1117 K | 0.0117 kPa

— the NIST ThermoML archive (doi:10.1021/je020189p)
